Test results reported in patent publication US11339193B2, “CDP protein secretion inhibitors” (KEZAR LIFE SCIENCES, priority 2018, dated 2022).
Numbered stars: 1 amine (or outer) side, 2 acyl side, 3 side chain; on linkers, the order of the positions; unused ones are H or OH. Square brackets hold non-standard residues; d marks the D form. Peptide text beside a SMILES is read from it. Ala(1-cyclohexenyl) = N[C@@H](CC1=CCCCC1)C(=O)O; Butanoyl(2R-oxy,4-CN) = N#CCC[C@@H](O)C(=O)O; X22 = CCCC[C@@H](C)C[C@H](N[*:1])C(=O)[*:2]; X12 = O=C([C@H](CC1=CCCC1)N[*:1])[*:2]; Ala(cPent) = N[C@@H](CC1CCCC1)C(=O)O; NMeCha = CN[C@@H](CC1CCCCC1)C(=O)O; aIle = CC[C@@H](C)[C@H](N)C(=O)O; NMeL = CN[C@@H](CC(C)C)C(=O)O; hLeu = CC(C)CC[C@H](N)C(=O)O; NMeA = CN[C@@H](C)C(=O)O; Nle = CCCC[C@H](N)C(=O)O

Assays:
Assay type in all cases: cell-based
[1] = test system: NCI-H929 multiple myeloma cell line; test: H929 assay (cell viability, Celltiter-Glo); settings: Homo sapiens, NCI-H929; 48 hours, cell viability; read-out: H929 EC50
Protocol: The human multiple myeloma cell line NCI-H929 was cultured in Advanced RPMI 1640 media (Gibco@) supplemented with 6% fetal bovine serum, 2 mM Glutamine, and 1× Penicillin/Streptomycin. On the day of assay, cells were resuspended in RPMI 1640 media supplemented with 10% fetal bovine serum, 2 mM Glutamine, and 1× Penicillin/Streptmycin and plated in 384-well tissue culture plates and treated with compound dilutions in DMSO/media. Plates were incubated at 37° C., 5% CO2 for 48 hours. After 48 hours, Celltiter-Glo@ (Promega) was added to each well and luciferase signal was quantified using Tecan Infinite M1000 Pro for cell viability determination.

[2] = test system: PD1-ss+10aa/Gaussia Luciferase; test: Dox induced PD1-ss-Gluc assay; settings: Flp-In 293 T-REx cells, doxycycline, 24 hours; read-out: PD1ss Gluc IC50
From the text: Dox Induced PD1-ss-Gluc Assay
Flp-In 293 T-REx™ cells were transfected with pcDNA™5/FRT/TO plasmid inserted with cDNA encoding Gaussia Luciferase fused to the 3′ end of cDNA encoding PD1 signal sequence plus 10 amino acids (N-[…]-C) (SEQ ID NO:3). Transfected cells were selected for resistance to the selectable markers Hygromycin and Blasticidin to create a stable cell line that contained the PD1-ss+10aa/Gaussia Luciferase cDNA insert whose expression was regulated under the T-REx™ system. The day before assay, cells were trypsinized and plated in 384-well tissue culture plates. The next day, compound dilutions in DMSO/media containing doxycycline were added to the wells and incubated at 37° C., 5% CO2.

[3] = test system: TNFα-FL/Gaussia Luciferase; test: Dox induced TNFα-FL-Gluc assay; settings: Flp-In 293 T-REx cells, doxycycline, 24 hours; read-out: TNFa FL Gluc IC50
From the text: Dox Induced TNFα-FL-Gluc Assay
Flp-In 293 T-REx™ cells were transfected with pcDNA™5/FRT/TO plasmid inserted with cDNA encoding Gaussia Luciferase fused to the 3′ end of cDNA encoding full length TNFα (amino acids 1-233). Transfected cells were selected for resistance to the selectable markers Hygromycin and Blasticidin to create a stable cell line that contained the TNFα-FL/Gaussia Luciferase cDNA insert whose expression was regulated under the T-REx™ system. The day before assay, cells were trypsinized and plated in 384-well tissue culture plates. The next day, compound dilutions in DMSO/media containing doxycycline were added to the wells and incubated at 37° C., 5% CO2.

SMILES | EC50 [1] [µM] | IC50 [2] [µM] | IC50 [3] [µM]
CCCC[C@@H](C)C[C@@H]1NC(=O)[C@H](CC2CCCCC2)N(C)C(=O)[C@H](CC(C)C)NC(=O)[C@H](CC(C)C)N(C)C(=O)[C@H](CC2CCCC2)NC(=O)[C@@H](CCC#N)OC(=O)[C@H](C)N(C)C1=O [C-47] (cyclo([Ala(cPent)][NMeL]L[NMeCha][X22][NMeA][Butanoyl(2R-oxy,4-CN)])) | 6.96 | 0.367 | 1.13
CCCC[C@@H](C)C[C@@H]1NC(=O)[C@H](CC2CCCCC2)N(C)C(=O)[C@H](CC(C)C)NC(=O)[C@H](CC(C)C)N(C)C(=O)[C@H](CCCC)NC(=O)[C@@H](CCC#N)OC(=O)[C@H](C)N(C)C1=O [C-53] (cyclo(L[NMeCha][X22][NMeA][Butanoyl(2R-oxy,4-CN)][Nle][NMeL])) | 5.86 | 0.495 | 1.56
CCCC[C@@H](C)C[C@@H]1NC(=O)[C@H](CC2CCCCC2)N(C)C(=O)[C@H](CC(C)C)NC(=O)[C@H](CC(C)C)N(C)C(=O)[C@H](CC2=CCCC2)NC(=O)[C@@H](CCC#N)OC(=O)[C@H](C)N(C)C1=O [C-55] (cyclo(L[NMeCha][X22][NMeA][Butanoyl(2R-oxy,4-CN)][X12][NMeL])) | 1.87 | 0.119 | 0.464
CCCC[C@@H](C)C[C@@H]1NC(=O)[C@H](CC2CCCCC2)N(C)C(=O)[C@H](CC(C)C)NC(=O)[C@H](CC(C)C)N(C)C(=O)[C@H](CC2=CCCCC2)NC(=O)[C@@H](CCC#N)OC(=O)[C@H](C)N(C)C1=O [C-56] (cyclo(L[NMeCha][X22][NMeA][Butanoyl(2R-oxy,4-CN)][Ala(1-cyclohexenyl)][NMeL])) | 1.65 | 0.094 | 0.238
CCCC[C@@H](C)C[C@@H]1NC(=O)[C@H](CC2CCCCC2)N(C)C(=O)[C@H](CC(C)C)NC(=O)[C@H](CC(C)C)N(C)C(=O)[C@H](CCC(C)C)NC(=O)[C@@H](CCC#N)OC(=O)[C@H](C)N(C)C1=O [C-60] (cyclo(L[NMeCha][X22][NMeA][Butanoyl(2R-oxy,4-CN)][hLeu][NMeL])) | 4.73 | 0.335 | 1.12
CCCC[C@@H](C)C[C@@H]1NC(=O)[C@H](CC2CCCCC2)N(C)C(=O)[C@H](CC(C)C)NC(=O)[C@H](CC(C)C)N(C)C(=O)[C@H]([C@@H](C)CC)NC(=O)[C@@H](CCC#N)OC(=O)[C@H](C)N(C)C1=O [C-61] (cyclo(I[NMeL]L[NMeCha][X22][NMeA][Butanoyl(2R-oxy,4-CN)])) | 4.56 | 0.392 | 1.89
CCCC[C@@H](C)C[C@@H]1NC(=O)[C@H](CC2CCCCC2)N(C)C(=O)[C@H](CC(C)C)NC(=O)[C@H](CC(C)C)N(C)C(=O)[C@H]([C@H](C)CC)NC(=O)[C@@H](CCC#N)OC(=O)[C@H](C)N(C)C1=O [C-62] (cyclo(L[NMeCha][X22][NMeA][Butanoyl(2R-oxy,4-CN)][aIle][NMeL])) | 4.22 | 0.277 | 1.66
CC(C)C[C@@H]1NC(=O)[C@H](Cc2ccc3ccccc3c2)N(C)C(=O)[C@H](CC(C)C)NC(=O)[C@H](CC(C)C)N(C)C(=O)[C@H](CC(C)C)NC(=O)[C@@H](CCC#N)OC(=O)[C@H](C)N(C)C1=O [C-66] (HELM PEPTIDE1{L.[CN([C@@H](Cc1ccc2ccccc2c1)C(=O)[*:2])[*:1]].L.[meA].[N#CCC[C@@H](O[*:1])C(=O)[*:2]].L.[meL]}$PEPTIDE1,PEPTIDE1,1:R1-7:R2$$$V2.0) | 8.8 | 1.04 | 2.8
